Test results published in ChEMBL document CHEMBL3390836, “Mannich- and LedererManasse-based analogues of the natural product S-(+)-curcuphenol as cancer proliferation and migration inhibitors” (Medchemcomm, 2012).

What was measured:
SK-MEL-5 = experiment: Cytotoxicity against human SK-MEL-5 cells assessed as cell growth at 10 uM after 48 hrs by SRB assay relative to control; assay type: functional; details: SK-MEL-5, 48 h, read-out: Activity
K562 = experiment: Cytotoxicity against human K562 cells assessed as cell growth at 10 uM after 48 hrs by SRB assay relative to control; assay type: functional; details: K562, 48 h, read-out: Activity
A498 = experiment: Cytotoxicity against human A498 cells assessed as cell growth at 10 uM after 48 hrs by SRB assay relative to control; assay type: functional; details: A498, 48 h, read-out: Activity
786-0 = experiment: Cytotoxicity against human 786-0 cells assessed as cell growth at 10 uM after 48 hrs by SRB assay relative to control; assay type: functional; details: 786-0, 48 h, read-out: Activity
RPMI-8226 = experiment: Cytotoxicity against human RPMI8226 cells assessed as cell growth at 10 uM after 48 hrs by SRB assay relative to control; assay type: functional; details: RPMI-8226, 48 h, read-out: Activity
MDA-MB-231 [1] = experiment: Cytotoxicity against human MDA-MB-231 cells assessed as cell growth at 10 uM after 48 hrs by SRB assay relative to control; assay type: functional; details: MDA-MB-231, 48 h, read-out: Activity
KM12 = experiment: Cytotoxicity against human KM12 cells assessed as cell growth at 10 uM after 48 hrs by SRB assay relative to control; assay type: functional; details: KM12, 48 h, read-out: Activity
[2] = Cytotoxicity against human PC3 cells assessed as cell growth at 10 uM after 48 hrs by SRB assay relative to control; assay type: functional; details: PC-3, 48 h, read-out: Activity
HCC 2998 = experiment: Cytotoxicity against human HCC2998 cells assessed as cell growth at 10 uM after 48 hrs by SRB assay relative to control; assay type: functional; details: HCC 2998, 48 h, read-out: Activity
MDA-MB-231 [3] = experiment: Antimigratory activity against human MDA-MB-231 cells after 24 hrs by wound-healing assay; assay type: functional, cell-based; details: MDA-MB-231, 24 h
A549 = experiment: Cytotoxicity against human A549 cells assessed as cell growth at 10 uM after 48 hrs by SRB assay relative to control; assay type: functional; details: A549, 48 h, read-out: Activity
[4] = Cytotoxicity against human OVCAR3 cells assessed as cell growth at 10 uM after 48 hrs by SRB assay relative to control; assay type: functional; details: OVCAR-3, 48 h, read-out: Activity
MOLT-4 = experiment: Cytotoxicity against human MOLT4 cells assessed as cell growth at 10 uM after 48 hrs by SRB assay relative to control; assay type: functional; details: MOLT-4, 48 h, read-out: Activity
IGROV-1 = experiment: Cytotoxicity against human IGROV1 cells assessed as cell growth at 10 uM after 48 hrs by SRB assay relative to control; assay type: functional; details: IGROV-1, 48 h, read-out: Activity
MDA-MB-231 [5] = experiment: Growth inhibition of human MDA-MB-231 cells after 72 hrs by MTT assay; assay type: functional, cell-based; details: MDA-MB-231, 72 h
SK-MEL-2 = experiment: Cytotoxicity against human SK-MEL-2 cells assessed as cell growth at 10 uM after 48 hrs by SRB assay relative to control; assay type: functional; details: SK-MEL-2, 48 h, read-out: Activity
HOP-62 = experiment: Cytotoxicity against human HOP62 cells assessed as cell growth at 10 uM after 48 hrs by SRB assay relative to control; assay type: functional; details: HOP-62, 48 h, read-out: Activity
NCI-H322M = experiment: Cytotoxicity against human NCI-H322M cells assessed as cell growth at 10 uM after 48 hrs by SRB assay relative to control; assay type: functional; details: read-out: Activity
[6] = Cytotoxicity against human UACC257 cells assessed as cell growth at 10 uM after 48 hrs by SRB assay relative to control; assay type: functional; details: UACC-257, 48 h, read-out: Activity
T47D = experiment: Cytotoxicity against human T47D cells assessed as cell growth at 10 uM after 48 hrs by SRB assay relative to control; assay type: functional; details: read-out: Activity
SNB-75 = experiment: Cytotoxicity against human SNB75 cells assessed as cell growth at 10 uM after 48 hrs by SRB assay relative to control; assay type: functional; details: SNB-75, 48 h, read-out: Activity
[7] = Cytotoxicity against human HCT15 cells assessed as cell growth at 10 uM after 48 hrs by SRB assay relative to control; assay type: functional; details: HCT-15, 48 h, read-out: Activity
[8] = Cytotoxicity against human SKOV3 cells assessed as cell growth at 10 uM after 48 hrs by SRB assay relative to control; assay type: functional; details: SK-OV-3, 48 h, read-out: Activity
M14 = experiment: Cytotoxicity against human M14 cells assessed as cell growth at 10 uM after 48 hrs by SRB assay relative to control; assay type: functional; details: M14, 48 h, read-out: Activity
MCF7 = experiment: Cytotoxicity against human MCF7 cells assessed as cell growth at 10 uM after 48 hrs by SRB assay relative to control; assay type: functional; details: MCF7, 48 h, read-out: Activity
NCI-H226 = experiment: Cytotoxicity against human NCI-H226 cells assessed as cell growth at 10 uM after 48 hrs by SRB assay relative to control; assay type: functional; details: NCI-H226, 48 h, read-out: Activity
TK-10 = experiment: Cytotoxicity against human TK10 cells assessed as cell growth at 10 uM after 48 hrs by SRB assay relative to control; assay type: functional; details: TK-10, 48 h, read-out: Activity
ACHN = experiment: Cytotoxicity against human ACHN cells assessed as cell growth at 10 uM after 48 hrs by SRB assay relative to control; assay type: functional; details: read-out: Activity
[9] = Cytotoxicity against human OVCAR8 cells assessed as cell growth at 10 uM after 48 hrs by SRB assay relative to control; assay type: functional; details: OVCAR-8, 48 h, read-out: Activity
MDA-MB-435 = experiment: Cytotoxicity against human MDA-MB-435 cells assessed as cell growth at 10 uM after 48 hrs by SRB assay relative to control; assay type: functional; details: MDA-MB-435, 48 h, read-out: Activity
HT-29 = experiment: Cytotoxicity against human HT-29 cells assessed as cell growth at 10 uM after 48 hrs by SRB assay relative to control; assay type: functional; details: HT-29, 48 h, read-out: Activity
SK-MEL-28 = experiment: Cytotoxicity against human SK-MEL-28 cells assessed as cell growth at 10 uM after 48 hrs by SRB assay relative to control; assay type: functional; details: SK-MEL-28, 48 h, read-out: Activity
LOX IMVI = experiment: Cytotoxicity against human LOXIMVI cells assessed as cell growth at 10 uM after 48 hrs by SRB assay relative to control; assay type: functional; details: read-out: Activity
U-251 = experiment: Cytotoxicity against human U251 cells assessed as cell growth at 10 uM after 48 hrs by SRB assay relative to control; assay type: functional; details: U-251, 48 h, read-out: Activity
[10] = Cytotoxicity against human NCI-ADR-RES cells assessed as cell growth at 10 uM after 48 hrs by SRB assay relative to control; assay type: functional; details: read-out: Activity
SF-539 = experiment: Cytotoxicity against human SF539 cells assessed as cell growth at 10 uM after 48 hrs by SRB assay relative to control; assay type: functional; details: SF-539, 48 h, read-out: Activity

Row | Structure (SMILES) | growth at 10 µM (SK-MEL-5) | growth at 10 µM (K562) | growth at 10 µM (A498) | growth at 10 µM (786-0) | growth at 10 µM (RPMI-8226) | growth at 10 µM (MDA-MB-231 [1]) | growth at 10 µM (KM12) | growth at 10 µM [2] | growth at 10 µM (HCC 2998) | IC50 (MDA-MB-231 [3]) | growth at 10 µM (A549) | growth at 10 µM [4] | growth at 10 µM (MOLT-4) | growth at 10 µM (IGROV-1) | IC50 (MDA-MB-231 [5]) | growth at 10 µM (SK-MEL-2) | growth at 10 µM (HOP-62) | growth at 10 µM (NCI-H322M) | growth at 10 µM [6] | growth at 10 µM (T47D) | further results
1 | CC(C)=CCC[C@H](C)c1ccc(C)c2c1OCN(CCO)C2 | 81.2% | 77.7% | 47.2% | 61% | 83.2% | 88.8% | 103% | 76.9% | 84.4% | 11.1 µM | 82.4% | 86.1% | 101% | 66.7% | 20.3 µM | 99.2% | 80.4% | 104% | 92.3% | 70% | growth at 10 µM (SNB-75): 58.7%; growth at 10 µM [7]: 105%; growth at 10 µM [8]: 105%; growth at 10 µM (M14): 90.9%; growth at 10 µM (MCF7): 83.9%; growth at 10 µM (NCI-H226): 91.2%; growth at 10 µM (TK-10): 88.4%; growth at 10 µM (ACHN): 90.1%; growth at 10 µM [9]: 86.3%; growth at 10 µM (MDA-MB-435): 101%; growth at 10 µM (HT-29): 68.7%; growth at 10 µM (SK-MEL-28): 111%; growth at 10 µM (LOX IMVI): 100%; growth at 10 µM (U-251): 85.1%; growth at 10 µM [10]: 73.5%; growth at 10 µM (SF-539): 88.2%
2 | CC(C)=CCC[C@H](C)c1ccc(C)c2c1OCN(CCCCC(=O)O)C2 | 92% | 87.5% | 99.4% | 82.6% | 92.3% | 91.8% | 107% | 92.3% | 102% | 29.9 µM | 101% | 112% | 102% | 108% | > 50 µM | 84% | 94.6% | 112% | 89.5% | 95.4% | growth at 10 µM (SNB-75): 91.8%; growth at 10 µM [7]: 92.3%; growth at 10 µM [8]: 104%; growth at 10 µM (M14): 92.5%; growth at 10 µM (MCF7): 92.5%; growth at 10 µM (NCI-H226): 95.7%; growth at 10 µM (TK-10): 86.1%; growth at 10 µM (ACHN): 98.8%; growth at 10 µM [9]: 88.8%; growth at 10 µM (MDA-MB-435): 99.4%; growth at 10 µM (HT-29): 83.3%; growth at 10 µM (SK-MEL-28): 115%; growth at 10 µM (LOX IMVI): 90.2%; growth at 10 µM (U-251): 106%; growth at 10 µM [10]: 85.3%; growth at 10 µM (SF-539): 91.8%
3 | CC(C)=CCC[C@H](C)c1ccc(C)c(CO)c1O | 85.1% | 101% | 97.4% | 80.1% | 88.8% | 109% | 92.1% | 89.1% | 102% | 12.3 µM | 78.5% | 91.1% | 91.4% | 107% | 22.2 µM | 102% | 99.8% | 109% | 91.9% | 72.2% | growth at 10 µM (SNB-75): 83.4%; growth at 10 µM [7]: 109%; growth at 10 µM [8]: 122%; growth at 10 µM (M14): 103%; growth at 10 µM (MCF7): 102%; growth at 10 µM (NCI-H226): 112%; growth at 10 µM (TK-10): 103%; growth at 10 µM (ACHN): 110%; growth at 10 µM [9]: 92.1%; growth at 10 µM (MDA-MB-435): 108%; growth at 10 µM (HT-29): 103%; growth at 10 µM (SK-MEL-28): 134%; growth at 10 µM (LOX IMVI): 103%; growth at 10 µM (U-251): 98.8%; growth at 10 µM [10]: 97.1%; growth at 10 µM (SF-539): 98.4%
4 | CC(C)=CCC[C@H](C)c1ccc(C)cc1O | 97.5% | 93% | 87.8% | 79.9% | 99.9% | 97.1% | 93.8% | 80% | 99.5% | 37.2 µM | 92.6% | 96.3% | 102% | 97.8% | > 50 µM | 147% | 102% | 113% | 107% | 111% | growth at 10 µM (SNB-75): 94.3%; growth at 10 µM [7]: 109%; growth at 10 µM [8]: 119%; growth at 10 µM (M14): 106%; growth at 10 µM (MCF7): 97.8%; growth at 10 µM (NCI-H226): 107%; growth at 10 µM (TK-10): 110%; growth at 10 µM (ACHN): 109%; growth at 10 µM [9]: 108%; growth at 10 µM (MDA-MB-435): 100%; growth at 10 µM (HT-29): 103%; growth at 10 µM (SK-MEL-28): 119%; growth at 10 µM (LOX IMVI): 107%; growth at 10 µM (U-251): 103%; growth at 10 µM [10]: 99%; growth at 10 µM (SF-539): 103%
